Reference: patent US4062948A, “Dihydromocimycin antibiotics” (Gist-Brocades N.V., priority 1970, dated 1977)
Converted amounts (≈) assume the structure as drawn.

Legend:
Test in all cases: micro liquid serial dilution test (Table II)
Format in all cases: cell-based
Proteus mirabilis L 93 = conditions: L93, 18 hours at 30° C or 37° C, read-out: Minimum inhibitory concentration
Description: (§1) The microbiological activity of the antibiotic preparation towards a number of micoorganisms has been determined by a micro liquid serial dilution test:
(§2) A stock solution of the test compounds at a concentration of 200 μg/ml in 0.05 molar phosphate buffer at a pH of 6.5 was prepared and serial 1:1 dilutions were made with a liquid medium inoculated with the test organism, using conventional glass spot-test plates. The plates were incubated 18 hours at 30° C or 37° C. The minimum inhibitory concentration (MIC) which is the smallest concentration of compound completely inhibiting the growth of the test organism is read and calculated in μg/ml.

Candida albicans A 7 = conditions: A7, 18 hours at 30° C or 37° C, read-out: Minimum inhibitory concentration
Description: as §1, §2

[1] = test system: Staphylococcus aureus A 55 (ATCC 65388); conditions: ATCC65388, 18 h, read-out: Minimum inhibitory concentration
Description: as §1, §2

[2] = test system: Saccharomyces cerevisiae D 160; conditions: D160, 18 hours at 30° C or 37° C, read-out: Minimum inhibitory concentration
Description: as §1, §2

[3] = test system: Mycoplasma synoviae A 2082; conditions: Mycoplasmopsis synoviae, A2082; 18 hours at 30° C or 37° C; read-out: Minimum inhibitory concentration
Description: as §1, §2

[4] = test system: Streptococcus haemolyticus A 266; conditions: A266, 18 hours at 30° C or 37° C, read-out: Minimum inhibitory concentration
Description: as §1, §2

[5] = test system: Diplococcus pneumoniae A 188; conditions: Streptococcus pneumoniae, A188; 18 hours at 30° C or 37° C; read-out: Minimum inhibitory concentration
Description: as §1, §2

[6] = test system: Candida parapsilosis A 952; conditions: Lodderomyces parapsilosis, A952; 18 hours at 30° C or 37° C; read-out: Minimum inhibitory concentration
Description: as §1, §2

[7] = test system: Trichophyton mentagrophytes R 177; conditions: R177, 18 hours at 30° C or 37° C, read-out: Minimum inhibitory concentration
Description: as §1, §2

Vibrio coli 1846 = conditions: Campylobacter coli, 18 hours at 30° C or 37° C, read-out: Minimum inhibitory concentration
Description: as §1, §2

Micrococcus flavus A 54 = conditions: A54, 18 hours at 30° C or 37° C, read-out: Minimum inhibitory concentration
Description: as §1, §2

Erwinia caretovora W 9 = conditions: W9, 18 hours at 30° C or 37° C, read-out: Minimum inhibitory concentration
Description: as §1, §2

[8] = test system: Streptococcus faecalis A 306; conditions: Enterococcus faecalis, A306; 18 hours at 30° C or 37° C; read-out: Minimum inhibitory concentration
Description: as §1, §2

Proteus mirabilis H 3 = conditions: H3, 18 hours at 30° C or 37° C, read-out: Minimum inhibitory concentration
Description: as §1, §2

Proteus rettgeri A 821 = conditions: Providencia rettgeri, A821; 18 hours at 30° C or 37° C; read-out: Minimum inhibitory concentration
Description: as §1, §2

[9] = test system: Pseudomonas aeruginosa L 94; conditions: L94, 18 hours at 30° C or 37° C, read-out: Minimum inhibitory concentration
Description: as §1, §2

[10] = test system: Salmonella typhimurium R 127; conditions: Salmonella enterica, 18 hours at 30° C or 37° C, read-out: Minimum inhibitory concentration
Description: as §1, §2

[11] = test system: Streptococcus agalactiae A 732; conditions: A732, 18 hours at 30° C or 37° C, read-out: Minimum inhibitory concentration
Description: as §1, §2

Aspergilus niger D 184 = conditions: 18 hours at 30° C or 37° C; read-out: Minimum inhibitory concentration
Description: as §1, §2

[12] = test system: Haemophilus influenzae A 773; conditions: A773, 18 hours at 30° C or 37° C, read-out: Minimum inhibitory concentration
Description: as §1, §2

Sarcina lutea ATCC 9341 = conditions: Micrococcus luteus, ATCC9341; 18 hours at 30° C or 37° C; read-out: Minimum inhibitory concentration
Description: as §1, §2

[13] = test system: Streptococcus disgalactiae A 730; conditions: A730, 18 hours at 30° C or 37° C, read-out: Minimum inhibitory concentration
Description: as §1, §2

Escherichia coli M = conditions: 18 hours at 30° C or 37° C, read-out: Minimum inhibitory concentration
Description: as §1, §2

[14] = test system: Torulopsis glabrata A 420; conditions: Nakaseomyces glabratus, A420; 18 hours at 30° C or 37° C; read-out: Minimum inhibitory concentration
Description: as §1, §2

[15] = test system: Pasteurella multocida A 723; conditions: A723, 18 hours at 30° C or 37° C, read-out: Minimum inhibitory concentration
Description: as §1, §2

[16] = test system: Actinobacillus equuli T 3; conditions: T3, 18 hours at 30° C or 37° C, read-out: Minimum inhibitory concentration
Description: as §1, §2

[17] = test system: Lactobacillus acidophilus D 218; conditions: D218, 18 hours at 30° C or 37° C, read-out: Minimum inhibitory concentration
Description: as §1, §2

[18] = test system: Escherichia coli NCTC 8196; conditions: NCTC8196, 18 hours at 30° C or 37° C, read-out: Minimum inhibitory concentration
Description: as §1, §2

[19] = test system: Mycoplasma hyorhinus A 2230; conditions: A2230, 18 hours at 30° C or 37° C, read-out: Minimum inhibitory concentration
Description: as §1, §2

SMILES: CC=CC=CC1OC(O)(C(CC)C(=O)NCC=CC=C(C)C(OC)C(C)C2OC(C=CC=CC=C(C)C(=O)c3c(O)cc[nH]c3=O)C(O)C2O)C(O)C(O)C1(C)C (centres unmarked) [mocimycin]
- MIC (Proteus mirabilis L 93): 100 µg/mL (≈ 125 µM)
- MIC (Candida albicans A 7): > 100 µg/mL
- MIC [1]: 100 µg/mL (≈ 125 µM)
- MIC [2]: > 100 µg/mL
- MIC [3]: 1 µg/mL (≈ 1.25 µM)
- MIC [4]: 2 µg/mL (≈ 2.51 µM)
- MIC [5]: 1 µg/mL (≈ 1.25 µM)
- MIC [6]: > 100 µg/mL
- MIC [7]: > 100 µg/mL
- MIC (Vibrio coli 1846): 100 µg/mL (≈ 125 µM)
- MIC (Micrococcus flavus A 54): 4 µg/mL (≈ 5.02 µM)
- MIC (Erwinia caretovora W 9): 6 µg/mL (≈ 7.53 µM)
- MIC [8]: 1 µg/mL (≈ 1.25 µM)
- MIC (Proteus mirabilis H 3): 50 µg/mL (≈ 62.7 µM)
- MIC (Proteus rettgeri A 821): > 100 µg/mL
- MIC [9]: > 100 µg/mL
- MIC [10]: > 100 µg/mL
- MIC [11]: 0.9 µg/mL (≈ 1.13 µM)
- MIC (Aspergilus niger D 184): > 100 µg/mL
- MIC [12]: 2 µg/mL (≈ 2.51 µM)
- MIC (Sarcina lutea ATCC 9341): 25 µg/mL (≈ 31.4 µM)
- MIC [13]: 0.6 µg/mL (≈ 0.753 µM)
- MIC (Escherichia coli M): > 100 µg/mL
- MIC [14]: > 100 µg/mL
- MIC [15]: 4 µg/mL (≈ 5.02 µM)
- MIC [16]: 1.5 µg/mL (≈ 1.88 µM)
- MIC [17]: > 100 µg/mL
- MIC [18]: 50 µg/mL (≈ 62.7 µM)
- MIC [19]: 3 µg/mL (≈ 3.76 µM)
